The nature of data set [1]: Drug accumulation in wild-type Candida albicans SC5314 at 50 microg/ml incubated for 3 hrs by HPLC analysis. Format: ADME. Conditions: dose 50 µg/ml.
Data set [2] has as its system Candida albicans. The experiment in a line: Antifungal activity against wild-type Candida albicans SC5314 assessed as inhibition of fungal growth measured after 24 hrs by CLSI based microtiter plate analysis. Conditions: for MIC80: SC5314, read-out: MIC80. Format: functional.
The subject of data set [3] is Candida albicans. The experiment in a line: microbe, parasite or virus in culture. It is filed as functional. Conditions: DSY654, time 24 hrs.

Converted amounts (≈) assume the structure as drawn. The source made the active and inactive calls. The rule behind the calls is not given here.

Regarding `CC1(C)CC[C@]2(C(=O)O)CC[C@]3(C)C(=CC[C@@H]4[C@@]5(C)CC[C@H](O)C(C)(C)[C@@H]5CC[C@]43C)[C@@H]2C1` [OLEANOLIC_ACID], the Drug uptake entry in data set [1] (BLD = below limit of detection) was “Bld”. Besides, the MIC with Candida albicans [2] (Candida albicans, SC5314) was over 256 µg/mL.
In the data set on Candida albicans [3], `CC/C(=C(/CC)c1ccc(O)cc1)c1ccc(O)cc1` [DIETHYLSTILBESTROL] had an MIC of 4 µg/mL (≈ 14.9 µM).
Consider `CC(=O)O[C@H]1C[C@@]2(C)[C@@H](C[C@@H](O)[C@H]3[C@@]4(C)CC[C@@H](O)[C@@H](C)[C@@H]4CC[C@@]32C)/C1=C(\CCC=C(C)C)C(=O)O` [FUSIDIC ACID], for which the Drug uptake result in data set [1] (BLD = below limit of detection) is “Bld”. In addition, the MIC with Candida albicans [2] (Candida albicans, SC5314) was over 256 µg/mL.
As to `O=C(OCCOCCO)c1ccccc1Nc1cccc(C(F)(F)F)c1` [ETOFENAMATE], in the data set with Candida albicans [2], the MIC entry is “inactive”. Besides, in the data set on Candida albicans [3], the MIC was determined as 16 µg/mL (≈ 43.3 µM).
As to `C=C1[C@H](O)[C@@]23CC[C@H]4[C@@](C)(CCC[C@@]4(C)C(=O)OCCCOc4ccc(C(=N)N)cc4)[C@@H]2CC[C@]1(O)C3`, the Drug uptake entry in data set [1] was “Active”. Besides, the MIC80 in the data set on Candida albicans [2] (Candida albicans) worked out at 64 µg/mL (≈ 125 µM).
Turning to `C=CCc1ccc(O)c(-c2ccc(O)c(CC=C)c2)c1` [HONOKIOL], the Drug uptake entry in data set [1] (BLD = below limit of detection) is listed as “Bld”. Also, the MIC against Candida albicans [3] turned out to be 4 µg/mL (≈ 15 µM).
For the compound `CC1(C)C2CCC1(C)C(O)C2` (stereo unspecified) [BORNEOL], the Drug uptake result in data set [1] (BLD = below limit of detection) is listed as “Bld”. Further, the MIC in the data set with Candida albicans [2] (Candida albicans, SC5314) is over 256 µg/mL.
In the case of `C[C@@H]1CC[C@@]2(OC1)O[C@H]1C[C@H]3[C@@H]4CC=C5C[C@@H](OC(=O)CCCOc6ccc(C(=N)N)cc6)CC[C@]5(C)[C@H]4CC[C@]3(C)[C@H]1[C@@H]2C`, the Drug uptake result in data set [1] is reported as “Active”. Moreover, in the data set with Candida albicans [2] (Candida albicans), the MIC80 came out at 64 µg/mL (≈ 103 µM).
`O=C(O)c1ccccc1Nc1cccc(C(F)(F)F)c1` [FLUFENAMIC ACID]: the Drug uptake entry in data set [1] (BLD = below limit of detection) is “Bld”. Also, the MIC in the data set on Candida albicans [2] (Candida albicans, SC5314) is over 256 µg/mL.
Regarding `COc1ccc2c(CCCI)c3[n+](cc2c1OC)CCc1cc2c(cc1-3)OCO2.[I-]`, the MIC80 is 64 µg/mL with Candida albicans [2] (Candida albicans) and 16 µg/mL with Candida albicans [3].
For `CCOC(=O)C1=C(COCCN)NC(C)=C(C(=O)OC)C1c1ccccc1Cl` (stereo unspecified) [AMLODIPINE], the Drug uptake entry in data set [1] (BLD = below limit of detection) was “Bld”. The compound also returned an MIC against Candida albicans [3] of 32 µg/mL (≈ 78.3 µM).
Regarding `C=C(C)[C@@H]1CC[C@]2(C(=O)O)CC[C@]3(C)[C@H](CC[C@@H]4[C@@]5(C)CC[C@H](O)C(C)(C)[C@@H]5CC[C@]43C)[C@@H]12` [BETULINIC ACID], in data set [1] (BLD = below limit of detection), the Drug uptake entry is on record as “Bld”. Further, in the data set on Candida albicans [2] (Candida albicans, SC5314), the MIC is over 256 µg/mL.
For the compound `C[C@@H]1CC[C@@]2(OC1)O[C@H]1C[C@H]3[C@@H]4CC=C5C[C@@H](O)CC[C@]5(C)[C@H]4CC[C@]3(C)[C@H]1[C@@H]2C` [DISOGENIN], the Drug uptake entry in data set [1] (BLD = below limit of detection) is “Bld”. The MIC in the data set on Candida albicans [2] (Candida albicans, SC5314) is over 256 µg/mL.
In the case of `CC(=O)O[C@H]1C[C@@]2(C)[C@@H](C[C@@H](O)[C@H]3[C@@]4(C)CC[C@@H](O)[C@@H](C)[C@@H]4CC[C@@]32C)/C1=C(\CCC=C(C)C)C(=O)OCCCOc1ccc(C(=N)N)cc1`, the Drug uptake entry in data set [1] was “Active”. In the data set with Candida albicans [2] (Candida albicans), the MIC80 came out at 16 µg/mL (≈ 23.1 µM).
In the case of `Clc1ccc2c(c1)CCc1cccnc1C2=C1CCNCC1` [DESLORATADINE], in data set [1] (BLD = below limit of detection), the Drug uptake entry was “Bld”.
On to `N=C(N)c1ccc(OCCCN2CCN(C(c3ccc(F)cc3)c3ccc(F)cc3)CC2)cc1`, for which, in data set [1], the Drug uptake entry is on record as “Active”. In addition, in the data set on Candida albicans [2] (Candida albicans), the MIC80 turned out to be 32 µg/mL (≈ 68.9 µM).
As to `Cc1ccc(Sc2ccccc2N2CCNCC2)c(C)c1` [VORTIOXETINE], the Drug uptake result in data set [1] (BLD = below limit of detection) was “Bld”. For the same compound, the MIC in the data set with Candida albicans [3] came to 4 µg/mL (≈ 13.4 µM).
Turning to `C=C1C(=O)O[C@@]23CC[C@H]4[C@@](C)(CCC[C@@]4(C)C(=O)OCCCOc4ccc(C(=N)N)cc4)[C@@H]2CC[C@]1(O)C3`, the Drug uptake entry in data set [1] was “Active”. Moreover, in the data set with Candida albicans [2] (Candida albicans), the MIC80 came to 32 µg/mL (≈ 61 µM).
For `C=C1C(=O)[C@@]2(C)CC[C@@H]3[C@@]1(CC[C@H]1[C@@]3(C)CCC[C@@]1(C)C(=O)OCCCCCCCCCOc1ccc(C(=N)N)cc1)C2`, the Drug uptake entry in data set [1] (BLD = below limit of detection) is “Bld”. Moreover, the MIC with Candida albicans [2] (Candida albicans, SC5314) came to 32 µg/mL (≈ 54.2 µM).

Source of the values: ChEMBL document CHEMBL5365543, “Benzamidine Conjugation Converts Expelled Potential Active Agents into Antifungals against Drug-Resistant Fungi” (J Med Chem, 2023).
